# Assay results reported in patent publication US6586419B1, “Phototherapeutic inactivation of ocular viruses” (PDT Systems, Inc., priority 1997, dated 2003).
# Where “and” joins values, the source holds several entries; their conditions need not be identical. Identical values can stand only once.
# Assays:
# [1] = daily systemic intravenous administration; cited from earlier work
# [2] = tested on: cytomegalovirus (CMV) retinitis; conditions: AIDS patients with CMV retinitis on anti-HIV and anti-CMV therapy; cited from earlier work
# [3] = tested on: cell-free Herpes simplex virus (HSV); assay: Inactivation of cell-free HSV by SnET2 and 660 nm light (viral infectivity/titer); type: cell-based
# Protocol: The infectivity of cell-free HSV exposed to SnET2 doses ranging from 10 μg/mL to 0.1 μg/mL and 660 nm light doses of 1.56 J/cm^2 are shown in Table 1.
# The infectivity of cell-free HSV exposed to 0.1 μg/mL SnET2 and light doses ranging from 1.56 J/cm^2 to 25 J/cm^2 are shown below in FIG. 2.
# (§1) To inactivate virus from a frozen viral stock with SnET2 and light doses, the following procedure was employed. Following light treatment, undiluted virus and drug/virus mixture were diluted 10-fold up to 1:10^6. All dilutions were used to infect sub-confluent, heat-shocked cultures of a cell line plated in tissue cultures of 24 well plate in triplicates. The infected cultures were treated with antibody against the major viral capside protein. An alkaline phosphatase labeled antibody to mouse IgG was then added followed by the alkaline phosphatase substrate. This produced a colored reaction which can be monitored microscopically in positive wells. The infected cells were characterized by a dark purple coloration in the nucleus. Viral titer or viral infectivity was determined by the last viral concentration that gave at least one infected cell per well.
# cell-associated HSV = assay: Inactivation of cell-associated HSV by SnET2 and light (viral infectivity/titer); type: cell-based, Herpes simplex virus; conditions: for viral infectivity (viral titer): LIGHT (52 mW/cm^2, 1.56 J/cm^2)
# cell associated CMV = assay: Inactivation of cell-associated CMV by SnET2 and light (viral infectivity/titer); type: cell-based, cytomegalovirus; conditions: for viral infectivity (viral titer): LIGHT (52 mW/cm^2, 1.56 J/cm^2)
# Protocol: as §1, with “capside” left out
smiles,measurement,setting,value
"Nc1nc2c(ncn2COCCO)c(=O)[nH]1 [anywhere, acyclovir]",systemic toxicity,[1],causing renal toxicity
O=C(O)P(=O)(O)O [foscarnet],systemic toxicity,[1],causing renal toxicity
same,median survival,[2],12.6 months
Nc1nc(O)c2ncn(COC(CO)CO)c2n1 [ganciclovir],systemic toxicity,[1],suppressing the bone marrow
same,median survival,[2],8.5 months
"CCOC(=O)C1=Cc2c3nc(cc4nc(cc5[n-]c(cc6[n-]c2c(C)c6CC)c(C)c5CC)C(C)=C4CC)[C@@H](C)[C@]13CC.[Cl-].[Cl-].[Sn] (racemic) [SnET2, tin ethyl etiopurpurin]",viral infectivity (viral titer),"[3]; 0.1 μg/mL, 660 nm LIGHT (26 mW/cm^2, 1.56 J/cm^2)",10^3
same,viral infectivity (viral titer),"[3]; 0.1 μg/mL, DARK",10^6
same,"viral infectivity (viral titer), light dose response","[3]; 0.1 μg/mL, DARK",10^6
same,"viral infectivity (viral titer), light dose response","[3]; 0.1 μg/mL, Light 26 mW/cm^2, 1.56 J/cm^2",10^3
same,"viral infectivity (viral titer), light dose response","[3]; 0.1 μg/mL, Light 26 mW/cm^2, 3.12 J/cm^2",<10^3
same,"viral infectivity (viral titer), light dose response","[3]; 0.1 μg/mL, Light 26 mW/cm^2, 6.24 J/cm^2",<10^2
same,"viral infectivity (viral titer), light dose response","[3]; 0.1 μg/mL, Light 26 mW/cm^2, 12.5 J/cm^2",<10^1
same,"viral infectivity (viral titer), light dose response","[3]; 0.1 μg/mL, Light 26 mW/cm^2, 25 J/cm^2",<10^1
same,viral infectivity (viral titer),"[3]; 1 μg/mL, 660 nm LIGHT (26 mW/cm^2, 1.56 J/cm^2)",<10^1
same,viral infectivity (viral titer),"[3]; 1 μg/mL, DARK",10^6
same,dark toxicity,"[3]; 10 μg/mL to 0.1 μg/mL, no light",No dark toxicity was observed
same,viral infectivity (viral titer),"[3]; 10 μg/mL, 660 nm LIGHT (26 mW/cm^2, 1.56 J/cm^2)",<10^1
same,viral infectivity (viral titer),"[3]; 10 μg/mL, DARK",10^6
same,inactivation of virus in vitro (summary),"[3]; SnET2 and light, cell-free HSV",complete inactivation
same,inactivation of the virus (partial response),"[3]; drug dose 0.1 μg/mL, light dose 1.56 J/cm^2, 660 nm",3 log10
same,inactivation of the virus (complete inactivation),"[3]; drug dose 1 μg/mL, light dose 1.56 J/cm^2, 660 nm",> 5 log10
same,inactivation of the virus (complete inactivation),"[3]; drug dose 10 μg/mL, light dose 1.56 J/cm^2, 660 nm",> 5 log10
same,viral infectivity (viral titer),cell-associated HSV; 1 μg/mL,10^3
same,viral infectivity (viral titer),cell-associated HSV; 5 μg/mL,<10^3
same,inactivation of virus in vitro (summary),"cell-associated HSV; SnET2 and light, cell associated HSV",complete inactivation
same,viral infectivity (viral titer),"cell associated CMV; 1 μg/mL, CMV 1:2",>10^3
same,viral infectivity (viral titer),"cell associated CMV; 1 μg/mL, CMV 1:10, two values given",< 10^2 and 10^4
same,viral infectivity (viral titer),"cell associated CMV; 5 μg/mL, CMV 1:2",>10^3
same,viral infectivity (viral titer),"cell associated CMV; 5 μg/mL, CMV 1:10, two values given",< 10^2 and 10^3
same,inactivation of virus in vitro (summary),"cell associated CMV; SnET2 and light, cell associated CMV",complete inactivation
same,inactivation (complete inactivation),"cell associated CMV; drug dose 1-10 μg/mL, light dose 15.6 J/cm^2",2-5 log10
